{"source": "ChEMBL document CHEMBL1275492", "about": "“In vitro activity of ceftobiprole against pathogens from two phase 3 clinical trials of complicated skin and skin structure infections” (2008)", "type_in_all_cases": "functional", "key": {"[1]": {"tested_on": "Staphylococcus lugdunensis", "experiment": "Antibacterial activity against coagulase-negative Staphylococcus lugdunensis obtained from complicated skin and skin structure infections by agar dilution method"}, "Staphylococcus aureus [2]": {"tested_on": "Staphylococcus aureus", "experiment": "Antibacterial activity against methicillin resistant Staphylococcus aureus obtained from complicated skin and skin structure infections by agar dilution method"}, "[3]": {"tested_on": "Staphylococcus saprophyticus", "experiment": "Antibacterial activity against coagulase-negative Staphylococcus saprophyticus obtained from complicated skin and skin structure infections by agar dilution method"}, "[4]": {"tested_on": "Staphylococcus lugdunensis", "experiment": "Antibacterial activity against methicillin-resistant, oxacillin-susceptible, coagulase-negative, mecA-positive Staphylococcus lugdunensis obtained from complicated skin and skin structure infections by agar dilution method"}, "Staphylococcus cohnii": {"tested_on": "Staphylococcus cohnii", "experiment": "Antibacterial activity against coagulase-negative Staphylococcus cohnii obtained from complicated skin and skin structure infections by agar dilution method"}, "Streptococcus pyogenes": {"tested_on": "Streptococcus pyogenes", "experiment": "Antibacterial activity against Streptococcus pyogenes obtained from complicated skin and skin structure infections by agar dilution method"}, "[5]": {"tested_on": "Streptococcus constellatus", "experiment": "Antibacterial activity against Streptococcus constellatus obtained from complicated skin and skin structure infections by agar dilution method"}, "[6]": {"tested_on": "Staphylococcus epidermidis", "experiment": "Antibacterial activity against coagulase-negative Staphylococcus epidermidis obtained from complicated skin and skin structure infections by agar dilution method"}, "[7]": {"experiment": "Antibacterial activity against Streptococcus sp. 'group G' obtained from complicated skin and skin structure infections by agar dilution method"}, "Aerococcus viridans": {"tested_on": "Aerococcus viridans", "experiment": "Antibacterial activity against Aerococcus viridans obtained from complicated skin and skin structure infections by agar dilution method"}, "Staphylococcus": {"tested_on": "Staphylococcus", "experiment": "Antibacterial activity against methicillin-susceptible, coagulase-negative Staphylococcus obtained from complicated skin and skin structure infections by agar dilution method"}, "[8]": {"tested_on": "Staphylococcus intermedius", "experiment": "Antibacterial activity against Staphylococcus intermedius obtained from complicated skin and skin structure infections by agar dilution method"}, "Lactococcus lactis": {"tested_on": "Lactococcus lactis", "experiment": "Antibacterial activity against Lactococcus lactis obtained from complicated skin and skin structure infections by agar dilution method"}, "[9]": {"experiment": "Antibacterial activity against Streptococcus sp. 'group C' obtained from complicated skin and skin structure infections by agar dilution method"}, "Enterococcus faecalis": {"tested_on": "Enterococcus faecalis", "experiment": "Antibacterial activity against Enterococcus faecalis obtained from complicated skin and skin structure infections by agar dilution method"}, "Staphylococcus hominis": {"tested_on": "Staphylococcus hominis", "experiment": "Antibacterial activity against coagulase-negative Staphylococcus hominis obtained from complicated skin and skin structure infections by agar dilution method"}, "[10]": {"tested_on": "Staphylococcus haemolyticus", "experiment": "Antibacterial activity against coagulase-negative Staphylococcus haemolyticus obtained from complicated skin and skin structure infections by agar dilution method"}, "Mammaliicoccus sciuri": {"tested_on": "Mammaliicoccus sciuri", "experiment": "Antibacterial activity against coagulase-negative Staphylococcus sciuri obtained from complicated skin and skin structure infections by agar dilution method"}, "Staphylococcus aureus [11]": {"tested_on": "Staphylococcus aureus", "experiment": "Antibacterial activity against Staphylococcus aureus obtained from complicated skin and skin structure infections by agar dilution method"}, "Enterococcus faecium": {"tested_on": "Enterococcus faecium", "experiment": "Antibacterial activity against Enterococcus faecium obtained from complicated skin and skin structure infections by agar dilution method"}, "Staphylococcus capitis": {"tested_on": "Staphylococcus capitis", "experiment": "Antibacterial activity against coagulase-negative Staphylococcus capitis obtained from complicated skin and skin structure infections by agar dilution method"}, "Staphylococcus warneri": {"tested_on": "Staphylococcus warneri", "experiment": "Antibacterial activity against coagulase-negative Staphylococcus warneri obtained from complicated skin and skin structure infections by agar dilution method"}, "Bacillus": {"tested_on": "Bacillus", "experiment": "Antibacterial activity against Bacillus spp. obtained from complicated skin and skin structure infections by agar dilution method"}, "Micrococcus": {"tested_on": "Micrococcus", "experiment": "Antibacterial activity against Micrococcus spp. obtained from complicated skin and skin structure infections by agar dilution method"}, "Gemella morbillorum": {"tested_on": "Gemella morbillorum", "experiment": "Antibacterial activity against Gemella morbillorum obtained from complicated skin and skin structure infections […]"}, "Gemella": {"tested_on": "Gemella", "experiment": "Antibacterial activity against Gemella spp. obtained from complicated skin and skin structure infections by agar dilution method"}, "Streptococcus agalactiae": {"tested_on": "Streptococcus agalactiae", "experiment": "Antibacterial activity against Streptococcus agalactiae obtained from complicated skin and skin structure infections by agar dilution method"}, "Streptococcus mitis": {"tested_on": "Streptococcus mitis", "experiment": "Antibacterial activity against Streptococcus mitis obtained from complicated skin and skin structure infections by agar dilution method"}, "Staphylococcus aureus [12]": {"tested_on": "Staphylococcus aureus", "experiment": "Antibacterial activity against methicillin susceptible Staphylococcus aureus obtained from complicated skin and skin structure infections by agar dilution method"}}, "data": [{"smiles": "CC[C@H]1OC(=O)[C@H](C)[C@@H](O[C@H]2C[C@@](C)(OC)[C@@H](O)[C@H](C)O2)[C@H](C)[C@@H](O[C@@H]2O[C@H](C)C[C@H](N(C)C)[C@H]2O)[C@](C)(O)C[C@@H](C)C(=O)[C@H](C)[C@@H](O)[C@]1(C)O", "note": "[ERYTHROMYCIN]", "values": [{"measurement": "MIC50", "setting": "[1]", "value": 0.25, "unit": "µg/mL"}, {"measurement": "MIC90", "setting": "[1]", "value": "> 16", "unit": "µg/mL"}, {"measurement": "MIC50", "setting": "Staphylococcus aureus [2]", "value": "> 8", "unit": "µg/mL"}, {"measurement": "MIC50", "setting": "[3]", "value": 0.25, "unit": "µg/mL"}, {"measurement": "MIC90", "setting": "[3]", "value": "> 16", "unit": "µg/mL"}, {"measurement": "MIC50", "setting": "[4]", "value": "> 8", "unit": "µg/mL"}, {"measurement": "MIC50", "setting": "Staphylococcus cohnii", "value": 0.25, "unit": "µg/mL"}, {"measurement": "MIC90", "setting": "Staphylococcus cohnii", "value": "> 16", "unit": "µg/mL"}, {"measurement": "MIC50", "setting": "Streptococcus pyogenes", "value": 0.06, "unit": "µg/mL"}, {"measurement": "MIC90", "setting": "Streptococcus pyogenes", "value": 0.06, "unit": "µg/mL"}, {"measurement": "MIC50", "setting": "[5]", "value": "≤ 0.06", "unit": "µg/mL"}, {"measurement": "MIC90", "setting": "[5]", "value": 0.06, "unit": "µg/mL"}, {"measurement": "MIC50", "setting": "[6]", "value": 0.25, "unit": "µg/mL"}, {"measurement": "MIC90", "setting": "[6]", "value": "> 16", "unit": "µg/mL"}, {"measurement": "MIC50", "setting": "[7]", "value": 0.06, "unit": "µg/mL"}, {"measurement": "MIC90", "setting": "[7]", "value": 1, "unit": "µg/mL"}, {"measurement": "MIC50", "setting": "Aerococcus viridans", "value": 0.03, "unit": "µg/mL"}, {"measurement": "MIC90", "setting": "Aerococcus viridans", "value": 8, "unit": "µg/mL"}, {"measurement": "MIC50", "setting": "Staphylococcus", "value": 0.25, "unit": "µg/mL"}, {"measurement": "MIC90", "setting": "Staphylococcus", "value": "> 8", "unit": "µg/mL"}, {"measurement": "MIC", "setting": "[8]", "value": "≤ 0.06", "unit": "µg/mL"}, {"measurement": "MIC50", "setting": "[8]", "value": "≤ 0.06", "unit": "µg/mL"}, {"measurement": "MIC90", "setting": "[8]", "value": 0.06, "unit": "µg/mL"}, {"measurement": "MIC50", "setting": "Lactococcus lactis", "value": 0.03, "unit": "µg/mL"}, {"measurement": "MIC90", "setting": "Lactococcus lactis", "value": 8, "unit": "µg/mL"}, {"measurement": "MIC50", "setting": "[9]", "value": 0.03, "unit": "µg/mL"}, {"measurement": "MIC90", "setting": "[9]", "value": 0.12, "unit": "µg/mL"}, {"measurement": "MIC50", "setting": "Enterococcus faecalis", "value": "> 8", "unit": "µg/mL"}, {"measurement": "MIC90", "setting": "Enterococcus faecalis", "value": "> 16", "unit": "µg/mL"}, {"measurement": "MIC50", "setting": "Staphylococcus hominis", "value": 0.25, "unit": "µg/mL"}, {"measurement": "MIC90", "setting": "Staphylococcus hominis", "value": "> 16", "unit": "µg/mL"}, {"measurement": "MIC50", "setting": "[10]", "value": 0.25, "unit": "µg/mL"}, {"measurement": "MIC90", "setting": "[10]", "value": "> 16", "unit": "µg/mL"}, {"measurement": "MIC50", "setting": "Mammaliicoccus sciuri", "value": 0.25, "unit": "µg/mL"}, {"measurement": "MIC90", "setting": "Mammaliicoccus sciuri", "value": "> 16", "unit": "µg/mL"}, {"measurement": "MIC50", "setting": "Staphylococcus aureus [11]", "value": 0.25, "unit": "µg/mL"}, {"measurement": "MIC90", "setting": "Staphylococcus aureus [11]", "value": "> 16", "unit": "µg/mL"}, {"measurement": "MIC50", "setting": "Enterococcus faecium", "value": 2, "unit": "µg/mL"}, {"measurement": "MIC50", "setting": "Staphylococcus capitis", "value": 0.25, "unit": "µg/mL"}, {"measurement": "MIC90", "setting": "Staphylococcus capitis", "value": "> 16", "unit": "µg/mL"}, {"measurement": "MIC50", "setting": "Staphylococcus warneri", "value": 0.25, "unit": "µg/mL"}, {"measurement": "MIC90", "setting": "Staphylococcus warneri", "value": "> 16", "unit": "µg/mL"}, {"measurement": "MIC50", "setting": "Bacillus", "value": 0.03, "unit": "µg/mL"}, {"measurement": "MIC90", "setting": "Bacillus", "value": 8, "unit": "µg/mL"}, {"measurement": "MIC50", "setting": "Micrococcus", "value": 0.03, "unit": "µg/mL"}, {"measurement": "MIC90", "setting": "Micrococcus", "value": 8, "unit": "µg/mL"}, {"measurement": "MIC50", "setting": "Gemella morbillorum", "value": 0.03, "unit": "µg/mL"}, {"measurement": "MIC90", "setting": "Gemella morbillorum", "value": 8, "unit": "µg/mL"}, {"measurement": "MIC50", "setting": "Gemella", "value": 0.03, "unit": "µg/mL"}, {"measurement": "MIC90", "setting": "Gemella", "value": 8, "unit": "µg/mL"}, {"measurement": "MIC50", "setting": "Streptococcus agalactiae", "value": 0.06, "unit": "µg/mL"}, {"measurement": "MIC90", "setting": "Streptococcus agalactiae", "value": "> 16", "unit": "µg/mL"}, {"measurement": "MIC", "setting": "Streptococcus mitis", "value": "≤ 0.06", "unit": "µg/mL"}, {"measurement": "MIC50", "setting": "Streptococcus mitis", "value": "≤ 0.06", "unit": "µg/mL"}, {"measurement": "MIC90", "setting": "Streptococcus mitis", "value": 0.06, "unit": "µg/mL"}, {"measurement": "MIC50", "setting": "Staphylococcus aureus [12]", "value": 0.25, "unit": "µg/mL"}, {"measurement": "MIC90", "setting": "Staphylococcus aureus [12]", "value": "> 8", "unit": "µg/mL"}]}]}
